Drawing on patent publication US20180244699A1, “1-HYDROXY-3H-2,1-BENZOXABOROLE DERIVATIVES AND THEIR USE AS MICROBIOCIDES” (Syngenta Participations AG, priority 2015, published 2018), this text covers inhibition of growth for 23 molecules.

As a reminder, the inhibition of growth is the share of the control response that was lost under treatment.

Holding throughout (assay type): cell-based
For assay [1], the system named is Gaeumannomyces graminis. Briefly: Gaeumannomyces graminis / liquid culture (take-all of cereals). Particulars: growth inhibition photometrically 4-5 days after application, compared to untreated control. As for the experimental part:
6. Gaeumannomyces Graminis/Liquid Culture (Take-all of Cereals) Mycelial fragments of the fungus from cryogenic storage were directly mixed into nutrient broth (PDB potato dextrose broth). After placing a (DMSO) solution of test compound into a microtiter plate (96-well format), the nutrient broth containing the fungal spores is added. The test plates are incubated at 24° C. and the inhibition of growth is determined photometrically 4-5 days after application.

In assay [2] the test system is Pythium ultimum. Briefly: Pythium ultimum / liquid culture (seedling damping off). Particulars: Globisporangium ultimum, growth inhibition photometrically 2-3 days after application, compared to untreated control. As for the experimental part:
15. Pythium ultimum/Liquid Culture (Seedling Damping Off) Mycelia fragments and oospores of a newly grown liquid culture of the fungus are directly mixed into nutrient broth (PDB potato dextrose broth). After placing a (DMSO) solution of test compound into a microtiter plate (96-well format), the nutrient broth containing the fungal mycelia/spore mixture is added. The test plates are incubated at 24° C. and the inhibition of growth is determined photometrically 2-3 days after application.

Assay [3] relates to Monographella nivalis (Microdochium nivale). Briefly: Monographella nivalis (Microdochium nivale) / liquid culture (foot rot cereals). Particulars: growth inhibition photometrically 4-5 days after application, compared to untreated control. As for the experimental part:
8. Monographella nivalis (Microdochium nivale)/Liquid Culture (Foot Rot Cereals) Conidia of the fungus from cryogenic storage are directly mixed into nutrient broth (PDB potato dextrose broth). After placing a (DMSO) solution of test compound into a microtiter plate (96-well format), the nutrient broth containing the fungal spores is added. The test plates are incubated at 24° C. and the inhibition of growth is determined photometrically 4-5 days after application.

On to `COc1c(C(=O)Oc2ccc(C#N)cc2)ccc2c1B(O)OC2` [Compound 14, (4-cyanophenyl) 1-hydroxy-7-methoxy-3H-2,1-benzoxaborole-6-carboxylate], for which the inhibition of growth at 20 ppm in assay [1] and in assay [2] was no less than 80% in each case.

`COc1c(C(=O)NCc2c(C)cccc2Cl)ccc2c1B(O)OC2` [Compound 31, N-[(2-chloro-6-methyl-phenyl)methyl]-1-hydroxy-7-methoxy-3H-2,1-benzoxaborole-6-carboxamide]: the inhibition of growth at 20 ppm in assay [3] and in assay [2] was no less than 80% in each case.

For `CCOc1ccc(NC(=O)c2ccc3c(c2OC)B(O)OC3)cc1Cl` [Compound 41, N-(3-chloro-4-ethoxy-phenyl)-1-hydroxy-7-methoxy-3H-2,1-benzoxaborole-6-carboxamide], the inhibition of growth at 20 ppm in assay [3] was no less than 80%.

Regarding `COc1c(C(=O)Nc2nc(C(C)C)ncc2C)ccc2c1B(O)OC2` [Compound 45, 1-hydroxy-N-(2-isopropyl-5-methyl-pyrimidin-4-yl)-7-methoxy-3H-2,1-benzoxaborole-6-carboxamide], the inhibition of growth at 20 ppm in assay [3] and in assay [2] was no less than 80% throughout.

With `COc1c(C(=O)Nc2n[nH]c(C(F)(F)F)n2)ccc2c1B(O)OC2` [Compound 46, 1-hydroxy-7-methoxy-N-[5-(trifluoromethyl)-1H-1,2,4-triazol-3-yl]-3H-2,1-benzoxaborole-6-carboxamide], the inhibition of growth at 20 ppm in assay [3] and in assay [2] was no less than 80% throughout.

Take `COc1c(C(=O)N(C)c2nnc(C(F)(F)F)s2)ccc2c1B(O)OC2` [Compound 49, 1-hydroxy-7-methoxy-N-methyl-N-[5-(trifluoromethyl)-1,3,4-thiadiazol-2-yl]-3H-2,1-benzoxaborole-6-carboxamide]: the inhibition of growth at 20 ppm in assay [3] and in assay [2] was no less than 80% in each case.

On to `COC(=O)c1cccc(NC(=O)c2ccc3c(c2OC)B(O)OC3)c1` [Compound 52, methyl 3-[(1-hydroxy-7-methoxy-3H-2,1-benzoxaborole-6-carbonyl)amino]benzoate], for which the inhibition of growth at 20 ppm in assay [3] and in assay [2] was no less than 80% each time.

In turn, `COc1c(C(=O)Nc2ccc(Cl)cc2F)ccc2c1B(O)OC2` [Compound 54, N-(4-chloro-2-fluoro-phenyl)-1-hydroxy-7-methoxy-3H-2,1-benzoxaborole-6-carboxamide] had an inhibition of growth at 20 ppm in assay [3] of no less than 80%.

The molecule `COc1c(C(=O)Nc2ccc(OC(F)(F)F)cc2)ccc2c1B(O)OC2` [Compound 55, 1-hydroxy-7-methoxy-N-[4-(trifluoromethoxy)phenyl]-3H-2,1-benzoxaborole-6-carboxamide] showed an inhibition of growth at 20 ppm in assay [3] of no less than 80%.

With `COc1c(C(=O)NC(C)c2ccc(F)cc2)ccc2c1B(O)OC2` (stereo not drawn) [Compound 57, N-[1-(4-fluorophenyl)ethyl]-1-hydroxy-7-methoxy-3H-2,1-benzoxaborole-6-carboxamide], the inhibition of growth at 20 ppm in assay [3] and in assay [2] was no less than 80% each time.

Take `CCCNC(=O)c1ccc2c(c1OC)B(O)OC2` [Compound 63, 1-hydroxy-7-methoxy-N-propyl-3H-2,1-benzoxaborole-6-carboxamide]: the inhibition of growth at 20 ppm in assay [3] and in assay [2] was no less than 80% each time.

For `COc1c(C(=O)Nc2ccc(C)cn2)ccc2c1B(O)OC2` [Compound 66, 1-hydroxy-7-methoxy-N-(5-methyl-2-pyridyl)-3H-2,1-benzoxaborole-6-carboxamide], the inhibition of growth at 20 ppm in assay [3] and in assay [2] was no less than 80% each time.

Take `COc1c(C(=O)OCC(OC)c2ccccc2)ccc2c1B(O)OC2` (stereo not drawn) [Compound 75, (2-methoxy-2-phenyl-ethyl) 1-hydroxy-7-methoxy-3H-2,1-benzoxaborole-6-carboxylate]: the inhibition of growth at 20 ppm in assay [1], in assay [3] and in assay [2] was no less than 80% in each case.

As to `COc1c(C(=O)OCC2CCC=CO2)ccc2c1B(O)OC2` (stereo not drawn) [Compound 77, 3,4-dihydro-2H-pyran-2-ylmethyl 1-hydroxy-7-methoxy-3H-2,1-benzoxaborole-6-carboxylate], the inhibition of growth at 20 ppm in assay [1], in assay [3] and in assay [2] was no less than 80% each time.

For `COc1c(C(=O)OCC#Cc2ccc(Cl)cc2)ccc2c1B(O)OC2` [Compound 80, 3-(4-chlorophenyl)prop-2-ynyl 1-hydroxy-7-methoxy-3H-2,1-benzoxaborole-6-carboxylate], the inhibition of growth at 20 ppm in assay [1], in assay [3] and in assay [2] was no less than 80% throughout.

`COc1c(C(=O)OCc2ncc(Cl)cc2F)ccc2c1B(O)OC2` [Compound 87, (5-chloro-3-fluoro-2-pyridyl)methyl 1-hydroxy-7-methoxy-3H-2,1-benzoxaborole-6-carboxylate]: the inhibition of growth at 20 ppm in assay [1] and in assay [2] was no less than 80% each time.

Regarding `COc1c(C(=O)OC(C)c2cc(C(F)(F)F)n[nH]2)ccc2c1B(O)OC2` (stereo not drawn) [Compound 91, 1-[3-(trifluoromethyl)-1H-pyrazol-5-yl]ethyl 1-hydroxy-7-methoxy-3H-2,1-benzoxaborole-6-carboxylate], the inhibition of growth at 20 ppm in assay [1] and in assay [2] was no less than 80% each time.

Take `COc1c(C(=O)OCCON=C(C)C)ccc2c1B(O)OC2` [Compound 93, 2-(isopropylideneamino)oxyethyl 1-hydroxy-7-methoxy-3H-2,1-benzoxaborole-6-carboxylate]: the inhibition of growth at 20 ppm in assay [1] and in assay [2] was no less than 80% throughout.

In the case of `COc1c(C(=O)OCn2cnc(Cl)c2Cl)ccc2c1B(O)OC2` [Compound 97, (4,5-dichloroimidazol-1-yl)methyl 1-hydroxy-7-methoxy-3H-2,1-benzoxaborole-6-carboxylate], the inhibition of growth at 20 ppm in assay [1] and in assay [2] was no less than 80% each time.

Take `CCOC(=O)CC(OC(=O)c1ccc2c(c1OC)B(O)OC2)C(F)(F)F` (stereo not drawn) [Compound 101, [3-ethoxy-3-oxo-1-(trifluoromethyl)propyl] 1-hydroxy-7-methoxy-3H-2,1-benzoxaborole-6-carboxylate]: the inhibition of growth at 20 ppm in assay [1] and in assay [2] was no less than 80% each time.

In the case of `COc1c(C(=O)OCCn2nc(C)cc2OC(C)=O)ccc2c1B(O)OC2` [Compound 102, 2-(5-acetoxy-3-methyl-pyrazol-1-yl)ethyl 1-hydroxy-7-methoxy-3H-2,1-benzoxaborole-6-carboxylate], the inhibition of growth at 20 ppm in assay [1] and in assay [2] was no less than 80% throughout.

Consider `COc1c(C(=O)OCc2cccc(C)n2)ccc2c1B(O)OC2` [Compound 119, (6-methyl-2-pyridyl)methyl 1-hydroxy-7-methoxy-3H-2,1-benzoxaborole-6-carboxylate], for which the inhibition of growth at 20 ppm in assay [3] and in assay [2] was no less than 80% each time.

For `COc1c(C(=O)OCc2cc(Cl)ccc2Cl)ccc2c1B(O)OC2` [Compound 120, (2,5-dichlorophenyl)methyl 1-hydroxy-7-methoxy-3H-2,1-benzoxaborole-6-carboxylate], in assay [1], the inhibition of growth at 20 ppm was no less than 80%.
